Data set [1] relates to vascular smooth muscle tissue. Description: Vascular tissue contractile response (muscle bath, KCl-contracted tissue). Format: cell-based, white New Zealand rabbits and human. The settings on record: cumulative 10^-8 to 10^-5 M, tissue contracted with KCl, FIG. 1 and FIG. 2. As for the experimental part:
Ginsburg (Stanford University Medical School), crown and silacrown ethers in concentrations of 10^−8M, 10^−7 M, 10^−6 M and 10^−5M were prepared fresh daily in deionized water. The 10^−5 M concentrations were used for the preliminary screening of the ionophores for vasoactivity to determine the most promising candidates. The procedures utilized in the removal and preparation of vascular smooth muscle tissue obtained from aorta of white New Zealand rabbits and human hearts from transplant patients are well established and have been successfully utilized by the personnel at Stanford University Medical School (Cardiology Department). A computer interfaced muscle bath system designed by Dr. Robert Ginsburg and associates was used to carry out the experimental procedure. The chambers (32 per system) were filled with standard Tyrode solution (chambers maintain a constant volume of 100 ml) and aerated continuously. The tissues were placed in the chambers and connected to stainless steel hooks to a linear motion transducer and preequilibrated for 1.5 hours at a constant temperature of 37° C. (a tension of 0.5 g was maintained during the pre-equilibration period).
A starting tension of approximately 0.5 g was achieved before adding the agonist ([…] KCl final concentration) to contract the tissues. After the contractions leveled off, the tensions were recorded before and after the crown ethers were added. To test for tissue integrity, 10^−5 M nitroglycerin was added at the end of the experiment (some relaxation should be observed), and the tension was recorded. […]
Accumulative dose response curves were obtained by repeating the previous procedure on both human and rabbit vascular smooth muscle tissues as previously described. However, crown ether concentrations of 10^−8 M, 10^−7 M, 10^−6 M and 10^−5 M were added accumulatively instead of only one dose (10^−5 M was used to screen the crowns) and the tensions recorded for each concentration (before the next concentration of ionophore was added, the contractile tension of the tissue had leveled off).

Data set [2] in a line: Acute oral toxicity study in rats (GLP). The class given is in vivo, rat. The settings on record: rat, in vivo, adult albino Sprague-Dawley rats. From the text: (§1) No mortality was observed during the study. […] Animals were asymptomatic by day 3. […] Thus, crown ethers and silacrown ethers of similar cavity size behave similarly, but the silacrown ethers have dramatically lower toxicity.

Another data set deals with mice. The settings on record: reported by Gad et al.; cited from earlier work.
Data set [3] has as its system adult albino Sprague-Dawley rats. Description: Acute oral toxicity study in rats (GLP). Format: in vivo, rat.
Source text: as §1

Usually LD50 stands for the dose expected to kill half of the subjects tested.

Where only a bound is given, the exact number is not on record here.

With `C[Si]1(C)OCCOCCOCCOCCOCCO1` [dimethylsila-17-crown-6], the “contractile response of vascular smooth muscle tissue (relaxation)” value (“contractile response” for short) in data set [1] is reported as “similar”.

Turning to `C[Si]1(C)OCCOCCOCCOC2CCCCC2O1` (stereo not drawn) [dimethylsila-14-cyclohexylcrown-5, Dimethylsila-14-cyclohexylcrown-5], in data set [2], the LD50 was more than 5000 mg/kg.

In the case of `C1CCC2OCCOCCOCCOC3CCCCC3OCCOCCOCCOC2C1` (stereo not drawn) [dicyclohexano-24-crown-8], the “LD50 acute oral toxicity” value in the data set with mice was 75 mg/kg.

Turning to `C1COCCOCCOCCO1` [Example 12-crown-4, 12-crown-4], the “LD50 acute oral toxicity” value in the data set on mice is listed as 2830 mg/kg.

With `C1COCCOCCOCCOCCO1` [Example 15-crown-5, 15-crown-5], in the data set with mice, the “LD50 acute oral toxicity” value is 2100 mg/kg.

`C[Si]1(C)OCCOCCOCCO1` [1,1-dimethylsila-11-crown-4]: the “contractile response” value in data set [1] is recorded as “similar”.

For 12-crown-6 [Example 12-crown-6], the “contractile response” value in data set [1] is on record as “similar”.

As for `C1CCC2OCCOCCOC3CCCCC3OCCOCCOC2C1` (stereo not drawn) [dicyclohexano-18-crown-6], the “LD50 acute oral toxicity” value in the data set with mice is recorded as 176 mg/kg.

With `C[Si]1(C)OCCOCCOCCOCCO1` [dimethylsila-14-crown-5], in data set [3], the “acute oral LD50” value is recorded as 9,900 mg/kg.

These data come from patent US11479568B2, “Silacrown ethers, pharmaceutical compositions thereof, and therapeutic applications thereof” (priority 2020, dated 2022).
